The source of these data is patent US9499535B2, “Kinase inhibitors” (ORIGENIS GMBH, priority 2011, dated 2016).

By IC50 is commonly meant the concentration needed to halve the response being measured.

A value given as a limit tells only on which side of the number the result lay.

In test [1] the target is T1, SYK kinase (Homo sapiens, UniProt P43405).
T1 construct: purchased Invitrogen, Carlsbad
Kind of test: SYK assay (OMNIA Kinase Assay, Invitrogen). The format is biochemical. The note with it: apparent Ki calculated from the IC50 using the Cheng-Prusoff equation; 1 mM ATP, 10 μM Peptide Substrate; read-out: SYK Activities: Ki. In outline:
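Continuous SOX-fluorescence (Omnia) readout of Tyr 7 peptide (10 μM) phosphorylation with 1 mM ATP and 0.2 mM DTT at 30° C, started by SYK addition. Fluorescence (λex 360/λem 485 nm) was read every 30 s for 30 min. IC50 from velocity vs concentration; apparent Ki via Cheng-Prusoff.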

In test [2] the target is LRRK2 (Homo sapiens, UniProt Q5S007). Kind of test: LRRK2 assay (LanthaScreen Eu Kinase Binding Assay). The note with it: 5 nM LRRK2, 10 nM tracer 236, RT 1 h; read-out: LRRK2 Activites: IC50. The source says:
Binding of the tracer to the kinase is detected using a europium-labeled anti-tag antibody, which binds to the kinase of interest. […] Binding of an inhibitor to the kinase competes for binding with the tracer, resulting in a loss of FRET. The fluorescence intensity ratio is directly proportional to the amount of peptide phosphorylation.
The inhibitor concentration was plotted versus the emission ratio to determine the IC50 using XLFit 5.0 (IDBS, Guildford) to fit to a sigmoidal dose response curve with a variable slope.
(In general: In TR-FRET formats the signal depends on donor and acceptor labels being close together.)

LRRK2, sequence (Q5S007 970-2527 limits assumed): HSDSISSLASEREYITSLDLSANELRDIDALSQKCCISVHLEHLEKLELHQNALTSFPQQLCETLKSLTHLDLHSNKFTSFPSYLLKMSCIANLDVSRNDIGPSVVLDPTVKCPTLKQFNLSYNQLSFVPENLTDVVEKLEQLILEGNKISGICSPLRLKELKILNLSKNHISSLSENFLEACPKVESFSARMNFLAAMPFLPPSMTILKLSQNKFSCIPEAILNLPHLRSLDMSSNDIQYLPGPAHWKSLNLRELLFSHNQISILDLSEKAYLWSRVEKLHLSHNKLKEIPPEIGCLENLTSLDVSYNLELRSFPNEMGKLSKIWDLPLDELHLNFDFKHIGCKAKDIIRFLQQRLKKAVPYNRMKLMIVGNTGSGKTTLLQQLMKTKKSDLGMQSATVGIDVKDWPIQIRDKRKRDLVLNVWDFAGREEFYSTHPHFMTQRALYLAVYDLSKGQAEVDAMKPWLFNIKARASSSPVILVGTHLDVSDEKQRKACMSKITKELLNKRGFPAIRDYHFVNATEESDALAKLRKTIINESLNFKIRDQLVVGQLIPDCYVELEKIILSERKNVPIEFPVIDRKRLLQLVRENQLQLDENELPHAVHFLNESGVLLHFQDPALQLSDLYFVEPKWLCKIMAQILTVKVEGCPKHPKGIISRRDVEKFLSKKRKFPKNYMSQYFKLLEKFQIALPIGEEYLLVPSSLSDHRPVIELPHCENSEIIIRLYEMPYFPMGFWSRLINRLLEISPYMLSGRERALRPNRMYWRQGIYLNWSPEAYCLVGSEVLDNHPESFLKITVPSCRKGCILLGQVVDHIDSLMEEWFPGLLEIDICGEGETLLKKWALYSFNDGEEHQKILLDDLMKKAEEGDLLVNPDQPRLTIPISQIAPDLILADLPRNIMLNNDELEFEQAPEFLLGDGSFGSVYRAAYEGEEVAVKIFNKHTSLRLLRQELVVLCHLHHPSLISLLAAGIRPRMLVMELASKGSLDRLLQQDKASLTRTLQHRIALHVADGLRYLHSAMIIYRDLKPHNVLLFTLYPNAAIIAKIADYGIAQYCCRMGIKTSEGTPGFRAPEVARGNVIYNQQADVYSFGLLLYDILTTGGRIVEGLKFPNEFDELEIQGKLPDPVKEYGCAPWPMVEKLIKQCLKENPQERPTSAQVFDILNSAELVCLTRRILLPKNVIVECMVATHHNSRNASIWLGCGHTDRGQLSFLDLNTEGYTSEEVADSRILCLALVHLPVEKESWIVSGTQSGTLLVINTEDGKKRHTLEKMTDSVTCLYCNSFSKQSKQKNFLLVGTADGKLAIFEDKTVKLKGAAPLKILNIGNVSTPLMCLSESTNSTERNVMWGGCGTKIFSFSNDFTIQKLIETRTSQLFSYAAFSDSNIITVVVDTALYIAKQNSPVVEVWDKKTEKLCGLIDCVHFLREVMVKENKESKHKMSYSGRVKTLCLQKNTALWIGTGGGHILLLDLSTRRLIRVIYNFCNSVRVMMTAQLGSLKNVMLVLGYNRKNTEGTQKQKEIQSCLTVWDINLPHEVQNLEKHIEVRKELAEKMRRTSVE

Take `COCCOc1ccc(Nc2nc3ccc(OC)cc3c3cn[nH]c23)cc1` [Example #104, [4-(2-Methoxy-ethoxy)-phenyl]-(8-methoxy-3H-pyrazolo[3,4-c]quinolin-4-yl)-amine]: the Ki in test [1] was 10 to 100 nM. Further, the IC50 in test [2] lay within 100 to 1000 nM.

In the case of `CCOc1ccc(Nc2nc3ccc(OC)cc3c3cn[nH]c23)cc1OC` [Example #105, (4-Ethoxy-3-methoxy-phenyl)-(8-methoxy-3H-pyrazolo[3,4-c]quinolin-4-yl)-amine], the Ki in test [1] was 10 to 100 nM. Further, the IC50 in test [2] is 100 to 1000 nM.

Regarding `COc1ccc2nc(Nc3ccc(N4CCCC4=O)cc3)c3[nH]ncc3c2c1` [Example #106], the Ki in test [1] was 100 to 1000 nM. Moreover, in test [2], the IC50 is 100 to 1000 nM.

Regarding `COc1ccc2nc(Nc3ccc(N4CCSCC4)cc3)c3[nH]ncc3c2c1` [Example #107, (8-Methoxy-3H-pyrazolo[3,4-c]quinolin-4-yl)-(4-thiomorpholin-4-yl-phenyl)-amine], the Ki in test [1] is 10 to 100 nM. Also, the IC50 in test [2] was in the range of 100 to 1000 nM.

For `COc1ccc2nc(Nc3ccc4oc(=O)[nH]c4c3)c3[nH]ncc3c2c1` [Example #108, 5-(8-Methoxy-3H-pyrazolo[3,4-c]quinolin-4-ylamino)-3H-benzooxazol-2-one], the Ki in test [1] is 100 to 1000 nM. Further, in test [2], the IC50 fell in the range of 100 to 1000 nM.

With `COc1ccc2nc(Nc3ccc4c(c3)NCCO4)c3[nH]ncc3c2c1` [Example #109, (3,4-Dihydro-2H-benzo[1,4]oxazin-6-yl)-(8-methoxy-3H-pyrazolo[3,4-c]quinolin-4-yl)-amine], the Ki in test [1] is 10 to 100 nM. In addition, in test [2], the concentration for half-maximal inhibition (IC50) lay in the range of 10 to 100 nM.

Take `COc1ccc2nc(Nc3ccc(N4CCS(=O)(=O)CC4)cc3)c3n[nH]cc3c2c1` [Example #111, [4-(1,1-Dioxo-1lambda-6-thiomorpholin-4-yl)-phenyl]-(8-methoxy-3H-pyrazolo[3,4-c]quinolin-4-yl)-amine]: in test [1], the Ki is 10 to 100 nM. Besides, the IC50 in test [2] was 10 to 100 nM.

With `COc1ccc2nc(Nc3cccc(O)c3)c3[nH]ncc3c2c1` [Example #113, 3-(8-Methoxy-3H-pyrazolo[3,4-c]quinolin-4-ylamino)-phenol], in test [1], the Ki was 10 to 100 nM. Also, the IC50 in test [2] lay in the range of 100 to 1000 nM.

On to `CCOc1ccc(Nc2nc3ccc(OC)cc3c3cn[nH]c23)cc1OCC` [Example #114, (3,4-Diethoxy-phenyl)-(8-methoxy-3H-pyrazolo[3,4-c]quinolin-4-yl)-amine], for which the Ki in test [1] was 100 to 1000 nM. Further, in test [2], the IC50 lay in the range of 100 to 1000 nM.

With `Brc1ccc2nc(Nc3ccc(N4CCOCC4)cc3)c3n[nH]cc3c2c1` [Example #115, (8-Bromo-2H-pyrazolo[3,4-c]quinolin-4-yl)-(4-morpholin-4-yl-phenyl)-amine], the Ki in test [1] was 10 to 100 nM. In addition, the IC50 in test [2] is 100 to 1000 nM.

Turning to `COc1ccc2nc(Nc3ccc4[nH]c(=O)oc(=O)c4c3)c3n[nH]cc3c2c1` [Example #117, 6-(8-Methoxy-2H-pyrazolo[3,4-c]quinolin-4-ylamino)-1H-benzo[d][1,3]oxazine-2,4-dione], in test [1], the Ki was 100 to 1000 nM. Further, the IC50 in test [2] lay in the range of 100 to 1000 nM.

Take `Brc1ccc2nc(Nc3cc[nH]n3)c3n[nH]cc3c2c1` [Example #119, (8-Bromo-2H-pyrazolo[3,4-c]quinolin-4-yl)-(1H-pyrazol-3-yl)-amine]: in test [1], the Ki was 100 to 1000 nM. Further, in test [2], the IC50 fell in the range of 100 to 1000 nM.

Turning to `COc1ccc2nc(Nc3ccc(F)c(OC)c3)c3n[nH]cc3c2c1` [Example #124, (4-Fluoro-3-methoxy-phenyl)-(8-methoxy-2H-pyrazolo[3,4-c]quinolin-4-yl)-amine], the Ki in test [1] is 10 to 100 nM. In addition, the IC50 in test [2] lay within 100 to 1000 nM.

As for `COc1ccc2nc(Nc3ccc(OC)c(F)c3)c3n[nH]cc3c2c1` [Example #125, (3-Fluoro-4-methoxy-phenyl)-(8-methoxy-2H-pyrazolo[3,4-c]quinolin-4-yl)-amine], in test [1], the Ki is 10 to 100 nM. The IC50 in test [2] fell in the range of 100 to 1000 nM.

In the case of `COc1cc2nc(Nc3ccc(N(C)C)cc3)c3n[nH]cc3c2cc1OC` [Example #135, N-(7,8-Dimethoxy-2H-pyrazolo[3,4-c]quinolin-4-yl)-N′,N′-dimethyl-benzene-1,4-diamine], the Ki in test [1] was 10 to 100 nM. The IC50 in test [2] was in the range of 100 to 1000 nM.

As for `COc1ccc2nc(Nc3ccc4c(c3)c(C)c(C)n4C)c3n[nH]cc3c2c1` [Example #138, (8-Methoxy-2H-pyrazolo[3,4-c]quinolin-4-yl)-(1,2,3-trimethyl-1H-indol-5-yl)-amine], in test [1], the Ki is 100 to 1000 nM. Further, in test [2], the IC50 lay in the range of 100 to 1000 nM.

Turning to `COc1cc2nc(Nc3ccc4c(c3)NCCO4)c3n[nH]cc3c2cc1OC` [Example #151, (3,4-Dihydro-2H-benzo[1,4]oxazin-6-yl)-(7,8-dimethoxy-2H-pyrazolo[3,4-c]quinolin-4-yl)-amine], the Ki in test [1] was 10 to 100 nM. Besides, in test [2], the IC50 lay within 100 to 1000 nM.

In the case of `COc1ccc2nc(Nc3ccc(Cc4ccncc4)cc3)c3n[nH]cc3c2c1` [Example #161, (8-Methoxy-2H-pyrazolo[3,4-c]quinolin-4-yl)-(4-pyridin-4-ylmethyl-phenyl)-amine], the Ki in test [1] is 10 to 100 nM. Besides, in test [2], the IC50 was in the range of 10 to 100 nM.

As to `COc1cccc2c1nc(Nc1ccc3c(c1)NCCO3)c1n[nH]cc12` [Example #168, (3,4-Dihydro-2H-benzo[1,4]oxazin-6-yl)-(6-methoxy-2H-pyrazolo[3,4-c]quinolin-4-yl)-amine], the Ki in test [1] is 10 to 100 nM. Besides, in test [2], the IC50 fell in the range of 100 to 1000 nM.

In the case of `COc1cccc2c1nc(Nc1ccc(N3CCOCC3)cc1)c1[nH]ncc12` [Example #170, (6-Methoxy-2H-pyrazolo[3,4-c]quinolin-4-yl)-(4-morpholin-4-yl-phenyl)-amine], the Ki in test [1] is 10 to 100 nM. Further, in test [2], the IC50 lay in the range of 100 to 1000 nM.

`COc1ccc2c(c1)nc(Nc1ccc3c(c1)NCCO3)c1n[nH]cc12` [Example #173, (3,4-Dihydro-2H-benzo[1,4]oxazin-6-yl)-(7-methoxy-2H-pyrazolo[3,4-c]quinolin-4-yl)-amine]: the Ki in test [1] is 10 to 100 nM. In test [2], the IC50 fell in the range of 100 to 1000 nM.

As for `COc1ccc2c(c1)nc(Nc1ccc(OC)c(OC)c1)c1n[nH]cc12` [Example #175, (3,4-Dimethoxy-phenyl)-(7-methoxy-2H-pyrazolo[3,4-c]quinolin-4-yl)-amine], the Ki in test [1] was 10 to 100 nM. In test [2], the IC50 lay in the range of 100 to 1000 nM.

With `COc1ccc2c(c1)nc(Nc1ccc(N3CCOCC3)cc1)c1n[nH]cc12` [Example #177, (7-Methoxy-2H-pyrazolo[3,4-c]quinolin-4-yl)-(4-morpholin-4-yl-phenyl)-amine], the Ki in test [1] was less than 10 nM. The IC50 in test [2] was in the range of 100 to 1000 nM.

Consider `COc1ccc2nc(Nc3ccc(N4CCOCC4)c(F)c3)c3n[nH]cc3c2c1` [Example #181, (3-Fluoro-4-morpholin-4-yl-phenyl)-(8-methoxy-2H-pyrazolo[3,4-c]quinolin-4-yl)-amine], for which, in test [1], the Ki was 10 to 100 nM. Also, the IC50 in test [2] was in the range of 100 to 1000 nM.

On to `COc1ccc2nc(Nc3ccc4c(c3)n(C)c(=O)n4C)c3n[nH]cc3c2c1` [Example #189, 5-(8-Methoxy-2H-pyrazolo[3,4-c]quinolin-4-ylamino)-1,3-dimethyl-1,3-dihydro-benzoimidazol-2-one], for which the Ki in test [1] was 10 to 100 nM. Further, the IC50 in test [2] lay in the range of 100 to 1000 nM.

Take `COc1ccc2nc(Nc3ccc4c(c3)NCCC4)c3n[nH]cc3c2c1` [Example #196, (8-Methoxy-2H-pyrazolo[3,4-c]quinolin-4-yl)-(1,2,3,4-tetrahydro-quinolin-7-yl)-amine]: the Ki in test [1] is 10 to 100 nM. Also, in test [2], the IC50 lay within 100 to 1000 nM.

`COc1cccc2nc(Nc3ccc4c(c3)NCCO4)c3n[nH]cc3c12` [Example #198, (3,4-Dihydro-2H-benzo[1,4]oxazin-6-yl)-(9-methoxy-2H-pyrazolo[3,4-c]quinolin-4-yl)-amine]: the Ki in test [1] is 100 to 1000 nM. Also, the IC50 in test [2] fell in the range of 10 to 100 nM.

Consider `COc1ccc(Nc2nc3cccc(OC)c3c3c[nH]nc23)cc1OC` [Example #200, (3,4-Dimethoxy-phenyl)-(9-methoxy-2H-pyrazolo[3,4-c]quinolin-4-yl)-amine], for which, in test [1], the Ki was 100 to 1000 nM. Also, in test [2], the IC50 fell in the range of 100 to 1000 nM.

Turning to `COc1ccc(Nc2nc3ccccc3c3c(C)[nH]nc23)cc1OC` [Example #207, (3,4-Dimethoxy-phenyl)-(1-methyl-2H-pyrazolo[3,4-c]quinolin-4-yl)-amine], the Ki in test [1] was 10 to 100 nM. Besides, the IC50 in test [2] was 100 to 1000 nM.

Consider `COc1ccc(Nc2nc3ccc(C#N)cc3c3c[nH]nc23)cc1OC` [Example #216, 4-(3,4-Dimethoxy-phenylamino)-2H-pyrazolo[3,4-c]quinoline-8-carbonitrile], for which the Ki in test [1] was 10 to 100 nM. Besides, the IC50 in test [2] lay within 100 to 1000 nM.

On to `COc1ccc2nc(Nc3ccc4c(c3)OCC(=O)N4)c3[nH]ncc3c2c1` [Example #224, 7-(8-Methoxy-3H-pyrazolo[3,4-c]quinolin-4-ylamino)-4H-benzo[1,4]oxazin-3-one], for which the Ki in test [1] is 10 to 100 nM. For the same compound, the IC50 in test [2] lay within 100 to 1000 nM.

In the case of `COc1ccc2nc(Nc3ccc(C)cc3)c3n[nH]cc3c2c1` [Example #244, (8-Methoxy-2H-pyrazolo[3,4-c]quinolin-4-yl)-p-tolyl-amine], the Ki in test [1] was 10 to 100 nM. In addition, the IC50 in test [2] was 100 to 1000 nM.

With `COc1cccc2c1nc(Nc1ccc(N3CCSCC3)cc1)c1n[nH]cc12` [Example #247, (6-Methoxy-2H-pyrazolo[3,4-c]quinolin-4-yl)-(4-thiomorpholin-4-yl-phenyl)-amine], in test [1], the Ki is 10 to 100 nM. In test [2], the IC50 fell in the range of 100 to 1000 nM.
